Counter-ions that a name gives are not always drawn.

The target of the test is T1, recombinant human GSK3β (Homo sapiens, UniProt P49841).
T1 construct: purchased Dundee University, UK
The experiment in a line: GSK3β Scintillation Proximity Assay (ATP competition). Format: biochemical. The following applies: inhibition constants calculated with Km of ATP for GSK3β of 20 μM; 1 μM ATP, 1 μM biotinylated peptide substrate. The procedure:
Determination of ATP Competition in Scintillation Proximity GSK3β Assay.
GSK3β Scintillation Proximity Assay.
The competition experiments were carried out in duplicate with 10 different concentrations of the inhibitors in clear-bottom microtiter plates (Wallac, Finland). A biotinylated peptide substrate, Biotin-Ala-Ala-Glu-Glu-Leu-Asp-Ser-Arg-Ala-Gly-Ser(PO3H2)-Pro-Gln-Leu (AstraZeneca, Lund), was added at a final concentration of 1 μM in an assay buffer containing 1 mU recombinant human GSK3β (Dundee University, UK), 12 mM morpholinepropanesulfonic acid (MOPS), pH 7.0, 0.3 mM EDTA, 0.01% β-mercaptoethanol, 0.004% Brij 35 (a […] detergent), 0.5% glycerol and 0.5 μg BSA/25 μl. The reaction was initiated by the addition of 0.04 μCi [γ-^33P]ATP (Amersham, UK) and unlabelled ATP at a final concentration of 1 μM and assay volume of 25 μl. After incubation for 20 minutes at room temperature, each reaction was terminated by the addition of 25 μl stop solution containing 5 mM EDTA, 50 μM ATP, 0.1% Triton X-100 and 0.25 mg streptavidin coated Scintillation Proximity Assay (SPA) beads (Amersham, UK). After 6 hours the radioactivity was determined in a liquid scintillation counter (1450 MicroBeta Trilux, Wallac). The inhibition curves were analysed by non-linear regression using GraphPad Prism, USA. The Km value of ATP for GSK3β, used to calculate the inhibition constants (Ki) of the various compounds, was 20 μM.

T1 sequence (P49841 whole entry): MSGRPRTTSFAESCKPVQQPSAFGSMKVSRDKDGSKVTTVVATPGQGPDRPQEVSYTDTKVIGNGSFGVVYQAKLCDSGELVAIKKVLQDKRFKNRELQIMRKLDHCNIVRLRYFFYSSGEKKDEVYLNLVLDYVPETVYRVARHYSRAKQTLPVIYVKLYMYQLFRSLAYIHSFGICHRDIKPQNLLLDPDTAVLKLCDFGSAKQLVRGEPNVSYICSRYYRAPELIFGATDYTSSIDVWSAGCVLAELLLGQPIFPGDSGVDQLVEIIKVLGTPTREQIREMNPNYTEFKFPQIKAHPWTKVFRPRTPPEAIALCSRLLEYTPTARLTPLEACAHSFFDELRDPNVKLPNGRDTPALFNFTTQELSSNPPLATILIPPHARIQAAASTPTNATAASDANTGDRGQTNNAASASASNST

As to `Cc1ncc(-c2nc(Nc3ccc(C(=O)N4CCC(F)CC4)nc3)ncc2F)n1C1CCOCC1` [Example 32, [5-[[5-Fluoro-4-[2-methyl-3-(oxan-4-yl)imidazol-4-yl]pyrimidin-2-yl]amino]pyridin-2-yl]-(4-fluoro-1-piperidyl)methanone], the inhibition constant (Ki) was 33 nM.
In the case of `CCN(Cc1ccccc1)C(=O)c1ccc(Nc2ncc(F)c(-c3cnc(C)n3C3CCOCC3)n2)cn1` [Example 33, N-Benzyl-N-ethyl-5-[[5-fluoro-4-[2-methyl-3-(oxan-4-yl)imidazol-4-yl]pyrimidin-2-yl]amino]pyridine-2-carboxamide] it was 16 nM.
With `CCC(C)N1CCN(C(=O)c2ccc(Nc3ncc(F)c(-c4cnc(C)n4C4CCOCC4)n3)cn2)CC1` (centres unmarked) [Example 34, (4-Butan-2-ylpiperazin-1-yl)-[5-[[5-fluoro-4-[2-methyl-3-(oxan-4-yl)imidazol-4-yl]pyrimidin-2-yl]amino]pyridin-2-yl]methanone] the figure was 85 nM; with `CCCN(CC1CC1)C(=O)c1ccc(Nc2ncc(F)c(-c3cnc(C)n3C3CCOCC3)n2)cn1` [Example 35], 20 nM.
In the case of `Cc1ncc(-c2nc(Nc3ccc(C(=O)N4CCN(c5ccc(F)cc5)CC4)nc3)ncc2F)n1C1CCOCC1` [Example 36, [5-[[5-Fluoro-4-[2-methyl-3-(oxan-4-yl)imidazol-4-yl]pyrimidin-2-yl]amino]pyridin-2-yl]-[4-(4-fluorophenyl)piperazin-1-yl]methanone] it was 10 nM; in that of `CCCN1CCN(C(=O)c2ccc(Nc3ncc(F)c(-c4cnc(C)n4C4CCOCC4)n3)cn2)CC1` [Example 37, [5-[[5-Fluoro-4-[2-methyl-3-(oxan-4-yl)imidazol-4-yl]pyrimidin-2-yl]amino]pyridin-2-yl]-(4-propylpiperazin-1-yl)methanone], 56 nM; in that of `CCN(CC)C(=O)c1ccc(Nc2ncc(F)c(-c3cnc(C)n3C3CCOCC3)n2)cn1` [Example 38, N,N-Diethyl-5-[[5-fluoro-4-[2-methyl-3-(oxan-4-yl)imidazol-4-yl]pyrimidin-2-yl]amino]pyridine-2-carboxamide], 29 nM.
As for `Cc1ncc(-c2nc(Nc3ccc(C(=O)NCC(C)(C)CN(C)C)nc3)ncc2F)n1C1CCOCC1` [Example 39, N-(3-Dimethylamino-2,2-dimethyl-propyl)-5-[[5-fluoro-4-[2-methyl-3-(oxan-4-yl)imidazol-4-yl]pyrimidin-2-yl]amino]pyridine-2-carboxamide], the Ki was 160 nM.
In the case of `Cc1ncc(-c2nc(Nc3ccc(C(=O)N4CC(C)CC(C)C4)nc3)ncc2F)n1C1CCOCC1` (centres unmarked) [Example 40, (3,5-Dimethyl-1-piperidyl)-[5-[[5-fluoro-4-[2-methyl-3-(oxan-4-yl)imidazol-4-yl]pyrimidin-2-yl]amino]pyridin-2-yl]methanone] it was 16 nM.
In the case of `Cc1ncc(-c2nc(Nc3cnc(C(=O)N4CCC4)c(Cl)c3)ncc2F)n1C1CCOCC1` [Example 42, Azetidin-1-yl-[3-chloro-5-[[5-fluoro-4-[2-methyl-3-(oxan-4-yl)imidazol-4-yl]pyrimidin-2-yl]amino]pyridin-2-yl]methanone] it was 11 nM.
With `CN1CCN(C(=O)c2ncc(Nc3ncc(F)c(-c4cnc(C(F)(F)F)n4C4CCOCC4)n3)cc2Cl)CC1` [Example 43, [3-Chloro-5-[[5-fluoro-4-[3-(oxan-4-yl)-2-(trifluoromethyl)imidazol-4-yl]pyrimidin-2-yl]amino]pyridin-2-yl]-(4-methylpiperazin-1-yl)methanone] the figure was 23 nM.
In the case of `CN1CCN(C(=O)c2ncc(Nc3ncc(F)c(-c4cnc(C(F)(F)F)n4C)n3)cc2Cl)CC1` [Example 44, [3-Chloro-5-[[5-fluoro-4-[3-methyl-2-(trifluoromethyl)imidazol-4-yl]pyrimidin-2-yl]amino]pyridin-2-yl]-(4-methylpiperazin-1-yl)methanone], the inhibitory constant (Ki) is 55 nM.
In the case of `Cn1c(-c2nc(Nc3cnc(C(=O)N4CCC4)c(Cl)c3)ncc2F)cnc1C(F)(F)F` [Example 45, Azetidin-1-yl-[3-chloro-5-[[5-fluoro-4-[3-methyl-2-(trifluoromethyl)imidazol-4-yl]pyrimidin-2-yl]amino]pyridin-2-yl]methanone hydrochloride] it was 32 nM; in that of `Cc1ncc(-c2nc(Nc3ccc(C(=O)N4CCC4)nc3)ncc2F)n1C` [Example 46, N-[6-(Azetidin-1-ylcarbonyl)pyridin-3-yl]-4-(1,2-dimethyl-1H-imidazol-5-yl)-5-fluoropyrimidin-2-amine], 39 nM.
With `Cc1ncc(-c2nc(Nc3ccc(C(=O)N4CCN(C)CC4)nc3)ncc2F)n1C` [Example 47, 4-(1,2-Dimethyl-1H-imidazol-5-yl)-5-fluoro-N-{6-[(4-methylpiperazin-1-yl)carbonyl]pyridin-3-yl}pyrimidin-2-amine] the figure was 100 nM; with `Cc1ncc(-c2nc(Nc3cnc(C(=O)N4CCC4)c(Cl)c3)ncc2F)n1C` [Example 48, N-[6-(Azetidin-1-ylcarbonyl)-5-chloropyridin-3-yl]-4-(1,2-dimethyl-1H-imidazol-5-yl)-5-fluoropyrimidin-2-amine], 16 nM.
With `Cc1ncc(-c2nc(Nc3cnc(C(=O)N4CCN(C)CC4)c(Cl)c3)ncc2F)n1C` [Example 49, N-[5-Chloro-6-[(4-methylpiperazin-1-yl)carbonyl]pyridin-3-yl]-4-(1,2-dimethyl-1H-imidazol-5-yl)-5-fluoropyrimidin-2-amine] the figure was 19 nM; with `Cc1ncc(-c2nc(Nc3ccc(S(=O)(=O)C(C)C)nc3)ncc2F)n1C1CCOCC1` [Example 50, {5-Fluoro-4-[2-methyl-3-(tetrahydro-pyran-4-yl)-3H-imidazol-4-yl]-pyrimidin-2-yl}-[6-(propan-2-ylsulfonyl)-pyridin-3-yl]-amine], 33 nM; with `CCS(=O)(=O)c1ccc(Nc2ncc(F)c(-c3cnc(C)n3C3CCOCC3)n2)cn1` [Example 51, (6-Ethanesulfonyl-pyridin-3-yl)-{5-fluoro-4-[2-methyl-3-(tetrahydro-pyran-4-yl)-3H-imidazol-4-yl]-pyrimidin-2-yl}-amine], 21 nM.
For `Cc1ncc(-c2nc(Nc3ccc(S(=O)(=O)NCC(F)(F)F)nc3)ncc2F)n1C1CCOCC1` [Example 52], the Ki was 39 nM.
In the case of `Cc1ncc(-c2nc(Nc3ccc(S(=O)(=O)N(C)C)nc3)ncc2F)n1C1CCOCC1` [Example 53] it was 20 nM.
In the case of `Cc1ncc(-c2nc(Nc3cnc(C(=O)N4CCCCC4)c(Cl)c3)ncc2F)n1C1CCOCC1` [Example 54, N-[5-Chloro-6-(piperidin-1-ylcarbonyl)pyridin-3-yl]-5-fluoro-4-[2-methyl-1-(tetrahydro-2H-pyran-4-yl)-1H-imidazol-5-yl]pyrimidin-2-amine hydrocholoride, hydrochloride] it was 7 nM.
In the case of `Cc1ncc(-c2nc(Nc3cnc(C(=O)N4CCCCC4)c(Cl)c3)ncc2F)n1C` [Example 55, N-[5-Chloro-6-(piperidin-1-ylcarbonyl)pyridin-3-yl]-4-(1,2-dimethyl-1H-imidazol-5-yl)-5-fluoropyrimidin-2-amine hydrochloride] it was 18 nM.
On to `Cn1c(-c2nc(Nc3cnc(C(=O)N4CCCCC4)c(Cl)c3)ncc2F)cnc1C(F)(F)F` [Example 56, N-[5-Chloro-6-(piperidin-1-ylcarbonyl)pyridin-3-yl]-5-fluoro-4-[1-methyl-2-(trifluoromethyl)-1H-imidazol-5-yl]pyrimidin-2-amine hydrochloride], for which the Ki is 55 nM.
Turning to `O=C(c1ncc(Nc2ncc(F)c(-c3cnc(C(F)(F)F)n3C3CCOCC3)n2)cc1Cl)N1CCCCC1` [Example 57, N-[5-Chloro-6-(piperidin-1-ylcarbonyl)pyridin-3-yl]-5-fluoro-4-[1-(tetrahydro-2H-pyran-4-yl)-2-(trifluoromethyl)-1H-imidazol-5-yl]pyrimidin-2-amine hydrochloride], the Ki is 19 nM.
On to `Cc1ncc(-c2nc(Nc3ccc(S(=O)(=O)N4CCN(C)CC4)nc3)ncc2F)n1C1CCOCC1` [Example 58, {5-Fluoro-4-[2-methyl-3-(tetrahydro-pyran-4-yl)-3H-imidazol-4-yl]-pyrimidin-2-yl}-[6-(4-methyl-piperazine-1-sulfonyl)-pyridin-3-yl]-amine], for which the Ki was 30 nM.
